# Data as given in the OPERA property sets (Mansouri et al. 2018).
Compound,boiling point [°C],melting point [°C],log10 vapour pressure (mmHg),log10 Koa,log10 Henry constant (atm·m³/mol),log10 Koc (L/kg),ready biodegradability,log10 biodegradation half-life (days)
CC(N)c1ccccc1 (stereo not drawn),185,,,,,,,
O=C(O)CCCCCBr,,35,,,,,,
COC(=O)[C@@H]1CCCN1C(=O)COC(=O)c1ccccc1,,72.5,,,,,,
COC(=O)C(C)C,92.5,-84.7,1.69,,,,,
CCOC(OCC)C(Cl)(Cl)Cl,197,,,,,,,
Cc1nn(-c2cc(NS(C)(=O)=O)c(Cl)cc2Cl)c(=O)n1C(F)F,,122,-9.01,,,,,
COC(=O)Nc1nc2cc(C(=O)c3ccccc3)ccc2[nH]1,,288,,,,,,
CC(=O)C1CCc2ccccc2C1=O (stereo not drawn),,56,,,,,,
Cc1cc2c(cc1C)C(=O)c1ccccc1C2=O,,211,,,,,,
C[Si](Cl)(Cl)CCl,122,,,,,,,
CC(C)CCCC(C)C,135,-103,,,,,,
CCNC(N)=O,,92.5,,,,,,
CCOc1ccc(C(C)(C)COCc2cccc(Oc3ccccc3)c2)cc1,,37,,,,,,
Clc1ccc2c(Cl)c(Cl)cc(Cl)c2c1,,,,8.08,,,,
C=Cc1cccnc1,162,,,,,,,
Oc1c(Cl)c(Cl)c(Cl)c(Cl)c1Cl,310,174,-3.96,,-7.61,4.3,not readily biodegradable,
Cc1cc2ccccc2[nH]1,272,61,,,,,,
FC(OC(F)(F)C(F)(F)C(F)(F)F)C(F)(F)F (stereo not drawn),41,,,,,,,
Cc1cccc(N)c1,203,-31.2,-0.519,,-5.78,1.53,not readily biodegradable,
Cc1cc(C)c(O)c(C)c1,220,73,-1.76,,,,not readily biodegradable,
ClCCCBr,143,-58.9,0.806,,,,not readily biodegradable,
Clc1cccc(Oc2ccccc2)c1,,,-2.42,,,,,
c1ccc2c(c1)ccc1nc3c(ccc4ccccc43)cc12,,226,,,,,,

Compound,boiling point [°C],melting point [°C],log10 vapour pressure (mmHg),log10 Koa,log10 Henry constant (atm·m³/mol),log10 Koc (L/kg),ready biodegradability,log10 biodegradation half-life (days)
Oc1ccc(N=Nc2ccc(N=Nc3ccccc3)c3ccccc23)cc1,,210,,,,,,
CCC1CCCCC1,132,-111,1.11,,,,not readily biodegradable,0.301
CC(=O)C(Cl)(Cl)Cl,149,,,,,,,
CSC(C)C,84.8,-102,1.9,,,,,
O=C1c2ccccc2-c2ccc(Cl)cc21,,126,,,,,,
O=C(O)c1ccccc1OP(=O)(O)O,,169,,,,,,
Cc1ccc2cccc(C)c2n1,255,27,,,,,,
NCCCc1ccccc1,221,,,,,,,
C[C@H]1CC[C@@H]2C[C@H]1C2(C)C,,-53,,,,,,
O=[N+]([O-])c1c(Cl)cccc1-c1c[nH]cc1Cl,,124,,,,,,
Nc1cccc(N)c1N,336,103,,,,,,
O=C(O)C(O)c1ccccc1 (racemic),,124,,,,,,
Brc1cccnc1,173,,0.244,,,,,
Oc1c(Cl)cc(Cl)c(Cl)c1Cc1c(O)c(Cl)cc(Cl)c1Cl,479,166,,,,,not readily biodegradable,
CC(C)(C)S(=O)(=O)O,,113,,,,,,
CC(C)OC(=O)Nc1ccccc1,,87.3,-3.85,,,1.83,,
COC(=O)CCCCCC(=O)OC,,-21,,,,,,
COC(=O)C1(S(=O)(=O)c2ccc(Cl)cc2)CC1,,116,,,,,,
FCCCCCl,115,,,,,,,
Cc1nc2ccccc2nc1C,,105,,,,,,
CC1(C)N=C(N)N=C(N)N1c1ccc(Cl)cc1,,146,,,,,,
CCc1oc2ccccc2c1C(=O)c1cc(Br)c(O)c(Br)c1,,151,,,,,,
CCOc1ccc(C=O)cc1OC,,64.5,,,,,,

Compound,boiling point [°C],melting point [°C],log10 vapour pressure (mmHg),log10 Koa,log10 Henry constant (atm·m³/mol),log10 Koc (L/kg),ready biodegradability,log10 biodegradation half-life (days)
C=CCc1ccccc1OCC(O)CNC(C)C (stereo not drawn),,108,,,,,,
CCCCCC=CC=CC(=O)O,,49.5,,,,,,
Cc1cc(-c2cc(C)c(OCC3CO3)c(C)c2)cc(C)c1OCC1CO1 (stereo not drawn),,,,,,,not readily biodegradable,
NNC(N)=O,,96,,,,,,
CC(=O)Oc1ccccc1C(=O)Oc1ccccc1C(=O)O,,159,,,,,,
C=CC(C)=CC,77,,,,,,,
CCCCCCC(=O)OCCCCC,245,-50,,,,,,
OCCN(CCO)c1ccccc1,,57,,,,,,
Clc1ccc(Br)s1,,-20,,,,,,
CCN(CC)c1ccc(C=NN(c2ccccc2)c2ccccc2)cc1,,94.5,,,,,,
COc1ccc(NS(=O)(=O)c2ccc(N)cc2)nn1,,182,,,,,,
COc1c2ccoc2cc2oc(CO[C@@H]3O[C@H](CO)[C@@H](O)[C@H](O)[C@H]3O)cc(=O)c12,,179,,,,,,
Nc1ccccc1C=O,,39,,,,,,
CCC#N,97.1,-92.8,1.68,2.69,-4.43,,,
CCCCCCCF,118,-73,1.26,,,,,
Nc1ccc(S(=O)(=O)Nc2cnc3ccccc3n2)cc1,,248,,,,,,
FC(F)=C(F)C(F)=C(F)F,6,-132,,,,,,
Cc1cccnc1N,222,33.5,,,,,,
O=C(Cl)N(c1ccccc1)c1ccccc1,,83,,,,,,
N=C(N)NC(=O)c1nc(Cl)c(N)nc1N,,241,,,,,,
CC(C)[C@@H](C)/C=C/[C@@H](C)[C@H]1CC[C@H]2C3=CC=C4C[C@@H](O)CC[C@]4(C)C3=CC[C@]12C,,146,,,,,,
CN(C)c1ccc([N+](=O)[O-])cc1,,164,-5.22,,,,,
C[N+]1(C)CCCCC1,,,,,,6,,
